Results as given in US9642362B2, “Antimicrobial compositions and uses thereof” (CASCADES CANADA ULC, priority 2012, dated 2017).
Where no end group is shown, it is not given here.

Tests used:
[1] = system: E. coli ATCC 11229; assay: Agar diffusion test of pre-soaked paper towel; type: cell-based, Escherichia coli; settings: FIG. 5
Source text: The antimicrobial activity of the compositions as described herein on a cellulosic substrate could be determined by soaking the cellulosic substrate in the compositions to be tested and plating the cellulosic substrate on agar. An agar diffusion test could then be performed.
The agar well diffusion method previously described by Tagg et al. 1976 was applied as a rapid method to detect the inhibitory activity of the compounds directly (as a solution) or after immobilization on paper towel. Briefly, 25 mL of sterile TSB with 0.8% (w/v) agar was seeded with 150 μL of an overnight culture of one of the target sensitive strains and poured into a sterile Petri dish (Starstedt Inc., Montreal, Canada). The Petri dishes were kept for 20 min at room temperature under sterile conditions to allow agar solidification. Wells 7 mm in diameter were then cut in the solidified agar using the wide end of a sterile 5-mL pipette. Each well was filled with 80 μL of the compound or mixture to be tested. In the case of pre-soaked paper towel, circles 1 cm in diameter were cut and deposited directly on the solidified agar. All plates were incubated at 30° C. for 18 h and the diameter of the zone of inhibition was measured.
The aim of this experiment was to study the inhibition of bacterial growth by the antimicrobial Mix I and II in association with paper towels.

[2] = system: E. coli ATCC 11229; assay: Growth curves by microplate microdilution method; type: cell-based, Escherichia coli; settings: for Reduction of growth, taken separately compared with combined (Mix II): FIG. 1A; for Inhibition (growth curves): FIGS. 1A, 2, compounds alone at citric acid 0.25%, lactic acid 0.25%, reuterin 1.25%, or combined as Mix
Experimental: (§1) The inhibitory activity of the various antimicrobial compounds alone or in combination was assayed using the microtiter plate critical dilution method with two-fold serial dilutions in TSB (Turcotte et al., 2004). The 100-μL carry-over volume was drawn into the multi-channel pipette four times between each dilution. Wells were then seeded with 40 μL of target strain overnight culture diluted 1,000 fold. The plates (MIC-2000 U-Bottom Microtiter® Plates; Thermo Labsystems, Franklin, Mass., USA) were incubated at 30° C. for 18 h before reading the optical density at 650 nm using a Thermomax microplate reader (Molecular Devices, Opti-Resources, Charny, QC, Canada).
(§2) One arbitrary unit (AU) was defined as a 100-μL portion of the highest dilution of tested sample that inhibited growth in a well after 18 h of incubation (Daba et al, 1993). […] The number of AU per ml is thus […], where n=number of inhibited wells.

[3] = system: Listeria ivanovii HPB28; assay: Growth curves by microplate microdilution method; type: cell-based; settings: for Reduction of growth, taken separately compared with combined (Mix II): FIG. 1B; for Reduction of growth, taken separately compared with combined (Mix I): FIG. 2B, lactic acid (0.125%), citric acid (0.0625%) and pediocin; for Inhibition (growth curves): FIGS. 1B, 2, compounds alone at citric acid 0.25%, lactic acid 0.25%, reuterin 1.25%, or combined as Mix
Experimental: as §1, §2

Compound | Inhibition of bacterial growth, individually compared with Mix I and Mix II [1] | Reduction of growth, taken separately compared with combined (Mix II) [2] | Inhibition (growth curves) [2] | Reduction of growth, taken separately compared with combined (Mix II) [3] | Reduction of growth, taken separately compared with combined (Mix I) [3] | Inhibition (growth curves) [3]
CC(=O)O [acetic acid] | do not inhibit E. Coli ATCC 11229 bacterial growth as efficiently as Mix I | – | – | – | – | –
O=C(O)CC(O)(CC(=O)O)C(=O)O [citric acid] | – | do not reduce the growth of E. Coli ATCC 11229 or Listeria ivanovii HPB28 as efficiently | partial and non-significant inhibition | do not reduce the growth of E. Coli ATCC 11229 or Listeria ivanovii HPB28 as efficiently | do not reduce the growth of Listeria ivanovii HPB28 as efficiently | partial and non-significant inhibition
CC(O)C(=O)O (centres unmarked) [lactic acid] | do not inhibit E. Coli ATCC 11229 bacterial growth as efficiently as Mix I | do not reduce the growth of E. Coli ATCC 11229 or Listeria ivanovii HPB28 as efficiently | partial and non-significant inhibition | do not reduce the growth of E. Coli ATCC 11229 or Listeria ivanovii HPB28 as efficiently | do not reduce the growth of Listeria ivanovii HPB28 as efficiently | partial and non-significant inhibition
pediocin: Fresh pediocin extract; class IIa bacteriocin produced by lactic acid bacteria (KYYGNGVTCGKHSCSVDWGKATTCIINNGAMAWATGGHQGNHKC; ends and bridges not checked; cysteine pairing not given here; UniProt P29430 19-62, looked up) | do not inhibit E. Coli ATCC 11229 bacterial growth as efficiently as Mix I | – | – | – | do not reduce the growth of Listeria ivanovii HPB28 as efficiently | –
